Marks after values point to notes of the source that are not given here.
Columns and labels:
[1] = target: T1, human 5-HT2C–INI (wild-type, WT) receptor (Homo sapiens, UniProt P28335); type: cell-based
T1 sequence (P28335 33-458): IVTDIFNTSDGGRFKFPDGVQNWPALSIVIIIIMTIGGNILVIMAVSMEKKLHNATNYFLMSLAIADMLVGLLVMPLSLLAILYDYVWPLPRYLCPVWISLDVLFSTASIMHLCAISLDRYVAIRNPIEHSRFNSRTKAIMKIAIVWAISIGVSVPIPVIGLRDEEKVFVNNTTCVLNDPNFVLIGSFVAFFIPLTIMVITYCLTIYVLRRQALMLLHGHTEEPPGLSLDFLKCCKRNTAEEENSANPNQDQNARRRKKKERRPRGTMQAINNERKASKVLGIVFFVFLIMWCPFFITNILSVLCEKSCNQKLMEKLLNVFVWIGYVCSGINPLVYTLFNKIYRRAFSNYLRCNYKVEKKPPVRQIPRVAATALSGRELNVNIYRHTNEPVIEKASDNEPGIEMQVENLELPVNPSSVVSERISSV

5-HT2C-INI receptor = target: T2, 5-HT2C-INI receptor (Homo sapiens, UniProt P28335); test: DiscoverX PathHunter β-arrestin recruitment to the 5-HT2C receptor; type: cell-based; conditions: for Emax (% 5-HT), β-arrestin recruitment / pEC50, β-arrestin recruitment: U2OS cells stably expressing 5-HT2C-INI, agonist 2 h, n = 3
T2 sequence (P28335 33-458): T1 sequence (P28335 33-458)

5-HT2C receptor (WT) = target: T3, 5-HT2C receptor (WT) (Homo sapiens, UniProt P28335); type: cell-based
T3 sequence (P28335 33-458): T1 sequence (P28335 33-458)

[2] = Solubility in the desensitization assay; type: physicochemical
5-HT2C receptor [3] = target: T4, 5-HT2C receptor (Homo sapiens, UniProt P28335); test: Inverse agonist reduction of basal 5-HT2C-mediated IP production; type: cell-based; conditions: CHO-K1 cells; basal 5-HT2C-mediated IP production after 20 h of vehicle; n = 3
T4 sequence (P28335 33-458): T1 sequence (P28335 33-458)

PKC = conditions: read-out: Ki for PKC; ref Herbert et al., 1990; Absolinova et al., 2010; cited from earlier work
5-HT2C receptor [4] = target: T4, 5-HT2C receptor; test: Effect of PKC inhibition on 5-HT-induced 5-HT2C receptor desensitization; conditions: 10 μM chelerythrine; data not shown
5-HT2C receptor [5] = target: T4, 5-HT2C receptor; test: Inverse agonist sensitization of 5-HT2C receptor IP signaling; type: cell-based; conditions: pretreatment for 8 h or less; data not shown
5-HT2C receptor [6] = target: T4, 5-HT2C receptor; conditions: ref Schlag et al., 2004; cited from earlier work

Row | Compound | Emax (% 5-HT), inositol phosphate production [1] | agonist efficacy class relative to 5-HT, IP production [1] | pEC50, inositol phosphate production [1] | Emax (% 5-HT), β-arrestin recruitment (5-HT2C-INI receptor) | Imax (% decrease from basal), inositol phosphate reduction (5-HT2C receptor [3]) [% decrease from basal] | also measured
1 | C[C@H](N)Cn1ccc2cc(F)c(Cl)cc21 [Ro 60–0175] | 99 ± 6 % 5-HT | full agonists | 8.30 ± 0.05 | 92 ± 4 % 5-HT |  | pEC50, β-arrestin recruitment (5-HT2C-INI receptor): 7.86 ± 0.11
2 | O=C1CCc2ccc(OCCCCN3CCN(c4cccc(Cl)c4Cl)CC3)cc2N1 [aripiprazole] | 40 ± 4^a % 5-HT |  |  | 8 ± 1^a % 5-HT |  | effect on 5-HT2C receptor β-arrestin recruitment (in words) (5-HT2C-INI receptor): negligible effects; desensitization of 5-HT2C-PLC signaling (in words) (5-HT2C receptor (WT)): did not desensitize; solubility in the desensitization assay [2]: low solubility
3 | CN(C)[C@@H]1Cc2ccccc2[C@@H](C2CCCCC2)C1 (relative stereo) [CAT, (2S,4R)-(−)-trans-4-cyclohexyl-N,N-dimethyl-1,2,3,4-tetrahydronaphthalen-2-amine] |  |  |  |  | 26 ± 4 | pIC50, inositol phosphate reduction (5-HT2C receptor [3]): 7.17 ± 0.21
4 | COc1ccc2c(c[n+](C)c3c4cc5c(cc4ccc23)OCO5)c1OC [chelerythrine] |  |  |  |  |  | Ki (PKC): 700 nM; effect of chelerythrine on 5-HT-induced IP production in non-desensitized cells (5-HT2C receptor [4]): no effect
5 | CN1C[C@@H](NS(=O)(=O)N(C)C)C[C@@H]2c3cccc4c3c(cn4C)C[C@H]21 [mesulergine] |  |  |  |  | 17 ± 2 | 
6 | COc1cc(CC(C)N)c(OC)cc1I (racemic) [DOI, (±) 2,5-dimethoxy-4-iodoamphetamine] | 82 ± 4 % 5-HT | full agonists | 8.32 ± 0.10 |  |  | 
7 | CN(C)[C@@H]1Cc2ccccc2[C@@H](c2cccc(Br)c2)C1 (relative stereo) [MBP, (2S,4R)-(−)-trans-4-(3’[meta]-bromophenyl)-N,N-dimethyl-1,2,3,4-tetrahydronaphthalen-2-amine] | 73 ± 4^a % 5-HT | partial agonists | 7.76 ± 0.04 | 7 ± 4^a % 5-HT |  | effect on 5-HT2C receptor β-arrestin recruitment (in words) (5-HT2C-INI receptor): negligible effects; pEC50, β-arrestin recruitment (5-HT2C-INI receptor): 6.84 ± 0.10^a
8 | O=C1Nc2cc(Cl)c(Cl)cc2N2CCNCC12 (stereo not drawn) [WAY-161503] | 100 ± 2 % 5-HT | full agonists | 8.07 ± 0.08 |  |  | 
9 | CN(C)[C@@H]1Cc2ccccc2[C@@H](c2ccccc2)C1 (relative stereo) [PAT, (2S,4R)-(−)-trans-4-phenyl-N,N-dimethyl-1,2,3,4-tetrahydronaphthalen-2-amine] | 50 ± 1^a % 5-HT |  |  |  |  | 
10 | Clc1cccc(N2CCNCC2)c1 [mCPP, 1-(3-chlorophenyl)piperazine] | 88 ± 10 % 5-HT |  |  |  |  | 
11 | C[C@H]1CNCCc2ccc(Cl)cc21 [lorcaserin] | 100 ± 1 % 5-HT |  |  | 118 ± 5^a % 5-HT |  | 
12 | CN(C)[C@@H]1Cc2ccccc2[C@@H](c2cccc(C(F)(F)F)c2)C1 (relative stereo) [MFP, (2S,4R)-(−)-trans-4-(3’[meta]-trifluoromethylphenyl)-N,N-dimethyl-1,2,3,4-tetrahydronaphthalene-2-amine] |  |  |  |  | 25 ± 3 | pIC50, inositol phosphate reduction (5-HT2C receptor [3]): 7.62 ± 0.10
13 | Cn1ccc2cc3c(cc21)CCN3C(=O)Nc1cccnc1 [SB 206553] |  |  |  |  | 32 ± 5 | sensitization of the 5-HT2C receptor after short pretreatment (5-HT2C receptor [5]): does not sensitize; sensitization of 5-HT2C receptors after 30 min pretreatment (5-HT2C receptor [6]): insufficient to sensitize

Reference: article PMC6767919 (European journal of pharmacology, 2019)
